The assay concerns the target T1, P2X7 (UniProt Q99572).
T1 sequence (Q99572 1-595): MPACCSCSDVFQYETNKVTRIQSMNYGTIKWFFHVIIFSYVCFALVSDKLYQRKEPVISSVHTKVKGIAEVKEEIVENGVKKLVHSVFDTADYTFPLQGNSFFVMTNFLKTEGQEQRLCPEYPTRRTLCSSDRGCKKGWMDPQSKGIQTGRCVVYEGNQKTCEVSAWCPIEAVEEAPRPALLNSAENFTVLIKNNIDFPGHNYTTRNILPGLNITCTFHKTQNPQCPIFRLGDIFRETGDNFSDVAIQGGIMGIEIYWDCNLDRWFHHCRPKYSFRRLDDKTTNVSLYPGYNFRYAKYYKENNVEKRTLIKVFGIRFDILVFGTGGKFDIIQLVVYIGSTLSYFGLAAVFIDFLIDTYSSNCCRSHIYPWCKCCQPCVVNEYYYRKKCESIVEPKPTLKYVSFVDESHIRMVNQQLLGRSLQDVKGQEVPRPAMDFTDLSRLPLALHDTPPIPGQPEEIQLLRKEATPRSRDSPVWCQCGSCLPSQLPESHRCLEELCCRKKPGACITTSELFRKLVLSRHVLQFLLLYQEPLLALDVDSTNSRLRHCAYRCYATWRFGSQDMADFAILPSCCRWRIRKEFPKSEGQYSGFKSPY
As to the kind of experiment: pIC50 values for P2X7 (Table 1). Format: cell-based. Here is the method: Intracellular Calcium Flux (FLIPR) Assay
Compound and Reagent Preparation
Stock solutions of compounds were prepared from powders as a 10 mM DMSO stock solution. These solutions were stored at RT during the two week period of these experiments to prevent freeze-thaw of the DMSO stocks. The DMSO stocks were added to the appropriate assay buffer at a concentration of 10 μM, and then diluted serially to the final concentrations that were tested. […] The aqueous solutions of compounds as well as ATP (Sigma A7699) and BzATP (Sigma B6396) were prepared fresh for each day of experiment.
1321N1 cells stably expressing the full length human P2X7 gene (1321N1-hP2X7) and HEK293 cells stably expressing the full length rat P2X7 gene (HEK293-rP2X7) were obtained from the Roche Cell Culture Facility. 1321N1-hP2X7 cells were grown in Dulbecco's Modified Eagle's Medium (DMEM) high glucose supplemented with 10% FBS and 250 μg/mL G418. HEK293-rP2X7 cells were grown in DMEM/F-12 supplemented with 10% FBS, 1 mM CaCl2, 2 mM MgCl2, 2 mM L-Glutamine and 500 μg/ml G418. Cells were split such that they never became >70% confluent.
Intracellular Calcium Flux (FLIPR)
On the day prior to the experiment, 1321N1-hP2X7 or HEK293-rP2X7 cells were released into suspension with calcium-free PBS+Versene and washed by centrifugation with calcium-free PBS to remove the Versene.
On the day of the experiment, plates were washed with FLIPR buffer (calcium- and magnesium-free Hank's Balanced Salt Solution (HBSS) supplemented with 10 mM Hepes, 2.5 mM probenecid and 2 mM calcium chloride) using a BIO-TEK 96 channel plate washer and incubated with […] fluo-3 dye at 37° C. for one hr. The dye was then removed by plate washing and the cells were allowed to equilibrate for 20 min at room temperature with antagonist or vehicle (FLIPR buffer). Agonist (100 μM BzATP final concentration for hP2X7; 5 μM BzATP final concentration or rP2X7) was added online with the FLIPR and fluorescence measurements made at 1 sec intervals for 60 sec followed by 3 sec intervals for a further 4 min (5 min total). A final addition of 5 μM ionomycin was made and the maximal BzATP-evoked fluorescence normalized to the maximal ionomycin-evoked fluorescence.
On to `COc1cc(NC(=O)N2C=CC(=O)C[C@H]2c2cc(F)cc(F)c2)c(Br)cc1C` (stereo in doubt) [Compound 47, 2-(3,5-Difluoro-phenyl)-4-oxo-3,4-dihydro-2H-pyridine-1-carboxylic acid (2-bromo-5-methoxy-4-methyl-phenyl)-amide], for which the negative logarithm of the IC50 (pIC50) is given as 6.987.

Take `COc1cc(Br)c(NC(=O)N2C=CC(=O)CC2c2ccccc2)cc1OC` (stereo not drawn) [Compound 1, 4-Oxo-2-phenyl-3,4-dihydro-2H-pyridine-1-carboxylic acid (2-bromo-4,5-dimethoxy-phenyl)-amide]: the negative logarithm of the IC50 (pIC50) amounted to 7.408.

`COc1cc(NC(=O)N2C=CC(=O)CC2c2ccccc2)c(Br)cc1Cl` (stereo not drawn) [Compound 2, 4-Oxo-2-phenyl-3,4-dihydro-2H-pyridine-1-carboxylic acid (2-bromo-4-chloro-5-methoxy-phenyl)-amide] registered a negative-log IC50 (pIC50) of 6.425.

As for `COc1cc(Br)c(NC(=O)N2C=CC(=O)C[C@H]2c2ccc(F)cc2)cc1OC` [Compound 3, (S)-2-(4-Fluoro-phenyl)-4-oxo-3,4-dihydro-2H-pyridine-1-carboxylic acid (2-bromo-4,5-dimethoxy-phenyl)-amide], the pIC50 was 8.055.

As to `COc1cc(NC(=O)N2C=CC(=O)C[C@H]2c2ccccc2)c(Br)cc1Cl` [Compound 4, (S)-4-Oxo-2-phenyl-3,4-dihydro-2H-pyridine-1-carboxylic acid (2-bromo-4-chloro-5-methoxy-phenyl)-amide], the negative logarithm of the IC50 (pIC50) is 7.476.

Compound `COc1cc(NC(=O)N2C=CC(=O)C[C@H]2c2ccc(F)cc2)c(Br)cc1Cl` [Compound 5, (S)-2-(4-Fluoro-phenyl)-4-oxo-3,4-dihydro-2H-pyridine-1-carboxylic acid (2-bromo-4-chloro-5-methoxy-phenyl)-amide] displayed a negative logarithm of the IC50 (pIC50) of 7.4325.

`COc1cc(NC(=O)N2C=CC(=O)C[C@H]2c2ccc(F)cc2)c(Br)cc1F` [Compound 6, (S)-2-(4-Fluoro-phenyl)-4-oxo-3,4-dihydro-2H-pyridine-1-carboxylic acid (2-bromo-4-fluoro-5-methoxy-phenyl)-amide]: the pIC50 was 7.5.

In turn, `COc1cc(NC(=O)N2C=CC(=O)C[C@H]2c2ccc(F)cc2)c(Cl)cc1Cl` [Compound 7, (S)-2-(4-Fluoro-phenyl)-4-oxo-3,4-dihydro-2H-pyridine-1-carboxylic acid (2,4-dichloro-5-methoxy-phenyl)-amide] displayed a pIC50 of 6.73.

`COc1cc(NC(=O)N2C=CC(=O)C[C@H]2c2ccc(F)cc2)c(Br)cc1C(F)(F)F` [Compound 8, (S)-2-(4-Fluoro-phenyl)-4-oxo-3,4-dihydro-2H-pyridine-1-carboxylic acid (2-bromo-5-methoxy-4-trifluoromethyl-phenyl)-amide] registered a pIC50 of 6.09.

For `O=C1C=CN(C(=O)Nc2cc(Cl)c(Cl)cc2Br)[C@H](c2ccc(F)cc2)C1` [Compound 9, (S)-2-(4-Fluoro-phenyl)-4-oxo-3,4-dihydro-2H-pyridine-1-carboxylic acid (2-bromo-4,5-dichloro-phenyl)-amide], the pIC50 came to 6.11.

For `O=C1C=CN(C(=O)Nc2cc(I)c(Cl)cc2Br)[C@H](c2ccc(F)cc2)C1` [Compound 10, (S)-2-(4-Fluoro-phenyl)-4-oxo-3,4-dihydro-2H-pyridine-1-carboxylic acid (2-bromo-4-chloro-5-iodo-phenyl)-amide], the pIC50 was 6.5175.

The compound `O=C1C=CN(C(=O)Nc2cc(C(F)(F)F)c(Cl)cc2Br)[C@H](c2ccc(F)cc2)C1` [Compound 11, (S)-2-(4-Fluoro-phenyl)-4-oxo-3,4-dihydro-2H-pyridine-1-carboxylic acid (2-bromo-4-chloro-5-trifluoromethyl-phenyl)-amide] displayed a pIC50 of 6.015.

Regarding `COc1cc(NC(=O)N2C=CC(=O)C[C@H]2c2ccc(F)cc2)c(Br)cc1C` [Compound 12, (S)-2-(4-Fluoro-phenyl)-4-oxo-3,4-dihydro-2H-pyridine-1-carboxylic acid (2-bromo-5-methoxy-4-methyl-phenyl)-amide], the pIC50 is 7.873.

In turn, `COc1cc(NC(=O)N2C=CC(=O)C[C@H]2c2ccc(F)cc2)c(C(C)C)cc1OC` [Compound 13, (S)-2-(4-Fluoro-phenyl)-4-oxo-3,4-dihydro-2H-pyridine-1-carboxylic acid (2-isopropyl-4,5-dimethoxy-phenyl)-amide] registered a pIC50 of 6.66.

Compound `CSc1cc(NC(=O)N2C=CC(=O)C[C@H]2c2ccc(F)cc2)c(Br)cc1Cl` [Compound 14, (S)-2-(4-Fluoro-phenyl)-4-oxo-3,4-dihydro-2H-pyridine-1-carboxylic acid (2-bromo-4-chloro-5-methylsulfanyl-phenyl)-amide] showed a pIC50 of 6.726.

`CS(=O)(=O)c1cc(NC(=O)N2C=CC(=O)C[C@H]2c2ccc(F)cc2)c(Br)cc1Cl` [Compound 15, (S)-2-(4-Fluoro-phenyl)-4-oxo-3,4-dihydro-2H-pyridine-1-carboxylic acid (2-bromo-4-chloro-5-methanesulfonyl-phenyl)-amide]: the pIC50 is on record as 5.94.

On to `C[S@@+]([O-])c1cc(NC(=O)N2C=CC(=O)C[C@H]2c2ccc(F)cc2)c(Br)cc1Cl` [Compound 16, (S)-2-(4-Fluoro-phenyl)-4-oxo-3,4-dihydro-2H-pyridine-1-carboxylic acid [2-bromo-4-chloro-5-((R)-methanesulfinyl)-phenyl]-amide], for which the pIC50 worked out at 6.623.

`C[S@+]([O-])c1cc(NC(=O)N2C=CC(=O)C[C@H]2c2ccc(F)cc2)c(Br)cc1Cl` [Compound 17, (S)-2-(4-Fluoro-phenyl)-4-oxo-3,4-dihydro-2H-pyridine-1-carboxylic acid [2-bromo-4-chloro-5-((S)-methanesulfinyl)-phenyl]-amide]: the pIC50 came to 5.86.

Compound `O=C1C=CN(C(=O)Nc2cc(F)c(Cl)cc2Br)[C@H](c2ccc(F)cc2)C1` [Compound 18, (S)-2-(4-Fluoro-phenyl)-4-oxo-3,4-dihydro-2H-pyridine-1-carboxylic acid (2-bromo-4-chloro-5-fluoro-phenyl)-amide] gave a negative logarithm of the IC50 (pIC50) of 6.286.

In turn, `COc1cc(Br)c(NC(=O)N2C=CC(=O)C[C@H]2c2cccc(F)c2)cc1OC` [Compound 19, (S)-2-(3-Fluoro-phenyl)-4-oxo-3,4-diohydro-2H-pyridine-1-carboxylic acid (2-bromo-4,5-dimethoxy-phenyl)-amide] displayed a pIC50 of 8.56.

Consider `COc1cc(NC(=O)N2C=CC(=O)CC2c2cccnc2)c(Br)cc1C` (stereo not drawn) [Compound 20, 4-Oxo-3,4-dihydro-2H-[2,3′]bipyridinyl-1-carboxylic acid (2-bromo-5-methoxy-4-methyl-phenyl)-amide], for which the pIC50 is 5.995.

`COc1ccc(Br)c(NC(=O)N2C=CC(=O)C[C@H]2c2ccc(F)cc2)n1` [Compound 21, (S)-2-(4-Fluoro-phenyl)-4-oxo-3,4-dihydro-2H-pyridine-1-carboxylic acid (3-bromo-6-methoxy-pyridin-2-yl)-amide]: the pIC50 was determined as 6.32.

`COC(=O)c1cc(Br)c(NC(=O)N2C=CC(=O)CC2c2ccc(F)cc2)cc1OC` (stereo not drawn) [Compound 22, 5-Bromo-4-{[2-(4-fluoro-phenyl)-4-oxo-3,4-dihydro-2H-pyridine-1-carbonyl]-amino}-2-methoxy-benzoic acid methyl ester]: the pIC50 stood at 7.15.

In the case of `Cc1ccc(S(=O)(=O)n2nc(C)c3cc(Br)c(NC(=O)N4C=CC(=O)C[C@H]4c4ccc(F)cc4)cc32)cc1` [Compound 23, (S)-2-(4-Fluoro-phenyl)-4-oxo-3,4-dihydro-2H-pyridine-1-carboxylic acid [5-bromo-3-methyl-1-(toluene-4-sulfonyl)-1H-indazol-6-yl]-amide], the pIC50 is 5.245.

For orientation: pIC50 means −log10 of the IC50, conventionally taken in molar units.

Source of the values: patent publication US8153809B2, “Dihydropyridone ureas as P2X7 modulators” (Roche Palo Alto LLC, priority 2008, dated 2012).
